{
  "source": "patent US20190175534A1",
  "about": "“PHARMACEUTICAL COMPOSITIONS COMPRISING DGLA AND USE OF SAME” (DS Biopharma Limited, priority 2016, published 2019)",
  "key": {"[1]": {"test_system": "patients with moderate to severe atopic dermatitis", "experiment": "Phase II study of oral DS107G: safety", "type": "in vivo, human", "conditions": "oral 2 g once daily 8 weeks", "text": "Subjects visited the clinic on 6 occasions: at screening, baseline, week 2, week 4, week 8 (end of treatment/early termination) and week 10 (follow-up). All subjects exited the study at the week 10 visit. The primary efficacy variable was the proportion of patients achieving an IGA of 0 (clear) or 1 (almost clear), and a decrease of at least 2 points in IGA at week 8. Secondary efficacy variables included: IGA at other visits, pruritus (obtained from the SCORAD visual analog scale), EASI, BSA, POEM, DLQI, SCORAD and TEWL (for selected sites only). Safety was assessed through adverse events, physical examination, vital signs and safety laboratory tests (including pregnancy tests for women of childbearing potential), Pharmacokinetic samples were obtained at Baseline (Day 0), week 4 and week 8 visits in order to measure total and free DGLA plasma trough levels. Separate plasma samples were retained for later analysis of total fatty acid profile and interleukin profile.\nLaboratory tests were performed at screening, Day 0, Week 4 and Week 8. If Week 8 results indicated a clinically significant change from baseline, laboratory tests were also performed at Week 10. […]\nEfficacy was evaluated on the basis of the ITT population and analyses were performed based on the randomized treatment and not on the treatment received. […]"}, "[2]": {"experiment": "Phase 1 food effect on single-dose plasma pharmacokinetics (1000 mg, fasted vs fed)", "type": "in vivo, human", "procedure": "The effect of food on the PK of an orally administered single dose of DS107G capsule in healthy subjects; and\n(§1) Subjects were randomly assigned in a 3:1 ratio of DG107G to placebo by block randomization. Single dose part one of the study comprised three cohorts of eight subjects each, with the addition of Cohort four based on evaluation of the safety data of Cohort three by the Safety Monitoring Committee (SMC). A single oral dose of DS107G or matching placebo was administered to fasted subjects in Cohorts one to three (500, 1000, and 2000 mg, respectively) in parallel; subjects in Cohort four were administered a dose of 4000 mg following completion of Cohort three. Subjects in Cohort two received 1000 mg or matching placebo in the fed state at ≥14 days after the first dose.\nFood effect was evaluated in Cohort two at least 14 days after the first dose at which time a second single dose was administered, Subjects were administered a 1000-mg dose of study drug with 240 mL of water after a 10-hour fasting period and 30 minutes after starting consumption of a meal. Subjects then refrained from food intake for at least 4 hours after dosing, Food consumption was standardized for at least 12 hours after dosing using a standardized high-fat meal (800 to 1000 kcal with 500 to 600 kcal from fat and 250 kcal from carbohydrates). A typical standard test meal consisted of two eggs fried in butter, two strips of bacon, two slices of toast with butter, 120 mL of hash brown potatoes, and 240 mL of whole milk.\nSubjects in Cohort two undergoing evaluation of the food effect on oral 1000 mg DGLA capsules were restricted from food consumption for at least 4 hours after dosing. Food consumption was standardized for at least 12 hours post dose using a standardized high-fat meal."}, "[3]": {"design": "species or system human", "conditions": "in vivo", "procedure": "A single-center, double-blind, randomized, placebo-controlled, two part Phase one study was performed in healthy male and female subjects aged 18 to 45 years inclusive. The primary objective of this study was to assess the safety and plasma pharmacokinetics (PK) of orally administered single doses and orally administered multiple doses of DS107G capsules (once daily for 28 days) in healthy subjects.\nas §1\nSafety assessments were monitored throughout the study.\nIn Part one of the study, subjects in Cohorts one to three were administered a single dose of study drug (either 500-, 1000-, or 2000-mg as 500-mg DS107G capsules or matching placebo capsules) in parallel on study Day 1 after at least an 8-hour fast, according to Table 20. Cohort 4 was initiated following the review of safety data from Cohort 3 by the SMC."}, "[4]": {"experiment": "Phase 1 multiple-dose skin blister fluid concentrations of free and total DGLA", "type": "in vivo, human", "text": "The PK of DGLA in human skin following multiple doses of DS107G capsule given once daily for 28 days to healthy subjects."}, "[5]": {"test_system": "healthy male and female subjects", "experiment": "Phase 1 study safety and tolerability (single and multiple dose)", "conditions": "for Tolerability: healthy volunteers", "protocol": "Screening procedures were conducted for both parts one and two before the start of the study on Day −1 (Baseline) by evaluating the safety assessments.\nSubjects were monitored throughout their confinement at the Phase 1 unit for adverse reactions to the study drug and/or procedures.\nSafety analyses were performed on the safety population tabulated by treatment arm, cohort, and visit. All safety data were characterized by descriptive statistical tools. […] Evaluation of safety assessments was performed in a descriptive manner. Continuous variables were characterized by their mean, standard deviation (SD), median, minimum and maximum values; discrete variables were characterized by their absolute (frequency) and relative (percentage) distribution."}},
  "data": [
    {"smiles": "CCCCC/C=C\\C/C=C\\C/C=C\\CCCCCCC(=O)O", "note": "[DGLA, Dihomo gamma linolenic acid]", "values": [
      {"measurement": "Drug related Serious Adverse Events", "setting": "[1]", "result": "no drug related Serious Adverse Events"},
      {"measurement": "Tolerability", "setting": "[1]", "result": "very well tolerated"},
      {"measurement": "Free DGLA Cmax occurred sooner under fasted than fed conditions (median)", "setting": "[2]; single 1000 mg dose", "result": 1, "unit": "h"},
      {"measurement": "Mean baseline-corrected free DGLA Cmax, fasted over fed", "setting": "[2]; single 1000 mg dose", "result": "about 3 fold"},
      {"measurement": "Mean baseline-corrected total DGLA AUC0-24, fasted over fed", "setting": "[2]; single 1000 mg dose", "result": "about 1,8 fold"},
      {"measurement": "Mean baseline-corrected total DGLA Cmax, fasted over fed", "setting": "[2]; single 1000 mg dose", "result": "about 1.5 fold"},
      {"measurement": "Mean free DGLA baseline-corrected AUC0-24, fasted over fed", "setting": "[2]; single 1000 mg dose", "result": "about 2 fold"},
      {"measurement": "Mean baseline-corrected AUC0-24, total DGLA over free DGLA", "setting": "[2]; single 1000 mg dose, fasted", "result": "~54", "unit": "fold"},
      {"measurement": "Mean baseline-corrected Cmax, total DGLA over free DGLA", "setting": "[2]; single 1000 mg dose, fasted", "result": "~10", "unit": "fold"},
      {"measurement": "Mean baseline-corrected AUC0-24, total DGLA over free DGLA", "setting": "[2]; single 1000 mg dose, fed", "result": "~56", "unit": "fold"},
      {"measurement": "Mean baseline-corrected Cmax, total DGLA over free DGLA", "setting": "[2]; single 1000 mg dose, fed", "result": "~20", "unit": "fold"},
      {"measurement": "Rate and extent of total DGLA absorption (mean Cmax and AUC0-24), fasted higher than fed", "setting": "[2]; single 1000-mg dose", "result": "approximately 50%"},
      {"measurement": "Linearity of elimination half-life or clearance, free or total DGLA", "setting": "[3]; human", "result": "no evidence of nonlinear pharmacokinetics"},
      {"measurement": "Mean baseline-corrected Cmax and AUC0-24 for free and total DGLA versus dose", "setting": "[3]", "result": "increased in a linear manner"},
      {"measurement": "Mean total DGLA concentration in skin blister fluid, Day 28 over Day 1", "setting": "[4]; 2000 mg daily", "result": "about 2.5 fold"},
      {"measurement": "Mean total DGLA concentration in skin blister fluid, Day 28 over Day 1", "setting": "[4]; 4000 mg daily", "result": "~3", "unit": "fold"},
      {"measurement": "Increase of mean total DGLA concentrations in skin blister fluid with a doubling in dose", "setting": "[4]; Days 1, 8, 14 and 28", "result": "about 1.4 fold"},
      {"measurement": "Mean free DGLA concentrations in skin blister fluid with a doubling in dose", "setting": "[4]; Days 1, 8, 14 and 28, 2000 vs 4000 mg daily", "result": "approximately doubled"},
      {"measurement": "Mean free DGLA concentration in skin blister fluid, Day 28 over Day 1", "setting": "[4]; both 2000 and 4000 mg daily", "result": "about 3 fold"},
      {"measurement": "Mean concentrations of free DGLA in plasma versus skin blister fluid", "setting": "[4]; same dose, Day 8 and Day 14 (but not Day 28)", "result": "somewhat similar"},
      {"measurement": "Mean concentrations of total DGLA in plasma versus skin blister fluid", "setting": "[4]; same dose, after Day 1", "result": "much higher in plasma than in skin blister fluid"},
      {"measurement": "Tolerability", "setting": "[5]; 2000- or 4000-mg once daily for 28 consecutive days", "result": "tolerated well"},
      {"measurement": "Deaths", "setting": "[5]; multi-dose study", "result": "no deaths"},
      {"measurement": "Severe TEAEs", "setting": "[5]; multiple dose", "result": "no severe TEAEs"},
      {"measurement": "Total number of TEAEs among active-treated subjects", "setting": "[5]; multiple dose", "result": 52},
      {"measurement": "Proportion of subjects reporting diarrhea", "setting": "[5]; multiple dose, 2000-mg group (3/6)", "result": 50, "unit": "%"},
      {"measurement": "Proportion of subjects reporting diarrhea", "setting": "[5]; multiple dose, 4000-mg group (4/6)", "result": 66.7, "unit": "%"},
      {"measurement": "Subjects reporting nausea", "setting": "[5]; multiple dose, 4000-mg treatment group (10 events among 4/6)", "result": 66.7, "unit": "%"},
      {"measurement": "Incidence of TEAEs among active-treated subjects", "setting": "[5]; multiple dose, 11/12 subjects", "result": 91.73, "unit": "%"},
      {"measurement": "Tolerability", "setting": "[5]; single dose 500, 1000, 2000 or 4000 mg", "result": "well tolerated"},
      {"measurement": "Incidence of diarrhea (loose stool), active-treated subjects", "setting": "[5]; single dose, 5/24 subjects", "result": 20.8, "unit": "%"}
    ]}
  ]
}
